Source: article PMC6033896, “Discovery of Mcl-1 inhibitors from integrated high throughput and virtual screening” (Scientific Reports, 2018)
“Also recorded” adds a separate entry of the source.

What was measured:
[1] = tested on: Bak−/− single knockout MEFs; assay: MEF cell death, propidium iodide flow cytometry; format: cell-based, mouse; settings: increasing concentrations, 15 h
Description: (§1) MEF cells, including wild-type, Bax/Bak double knockout, Bax−/− single knockout, and Bak−/− single knockout were tested and characterized (Supplementary Fig. S3). The cells were cultured in DMEM (Life Technologies), supplemented with 10% fetal bovine serum (FBS) (Thermo Scientific HyClone) and 1% Penicillin/streptomycin solution (Life Technologies). The retrovirally transduced lymphoma cells isolated from Eμ-myc transgenic mice were provided by Ricky W. Johnstone at the University of Melbourne, Melbourne, Australia and cultured as previously described[37],[65].
(§2) MEFs were seeded in 24-well plates at 0.5 × 10^5 cells/well, left to adhere for 5 hours and then treated for 15 hours with increasing concentrations of the compounds. The cells were harvested, washed with phosphate-buffered saline (PBS) and stained with 0.025 mg/ml propidium iodide (MP Biomedicals). The percentage of the propidium iodide positive population was determined by flow cytometry and calculated using WinList 3.0.

[2] = tested on: Bax−/− single knockout MEFs; assay: MEF cell death, propidium iodide flow cytometry; format: cell-based, mouse; settings: increasing concentrations, 15 h
Description: as §1, §2

[3] = tested on: Eµ-myc lymphoma cells overexpressing Bcl-2; assay: Eµ-myc lymphoma cell viability, flow cytometry; format: cell-based, mice; settings: increasing concentrations
Description: as §1
(§3) The Mcl-1, Bcl-2, and Bcl-xL retroviral transduced lymphoma Eμ-myc cells were seeded in 12-well plates at 0.5 × 10^6 cells/well. […] The cells were harvested and stained with violet LIVE/DEAD Fixable Dead Cell Stain Kit (Invitrogen) according to manufacturer’s protocol. The percentage of fluorescent positive cells was determined by flow cytometry and calculated using WinList 3.0.

[4] = tested on: Eµ-myc lymphoma cells overexpressing Mcl-1; assay: Eµ-myc lymphoma cell viability, flow cytometry; format: cell-based, mice; settings: increasing concentrations, 15 h
Description: as §1, §3

[5] = target: T1, mutant Mcl-1 R263A (Homo sapiens, UniProt Q07820, R263A); assay: BLI-based direct binding assay; settings: compared with wild-type Mcl-1
T1 construct: human Mcl-1 (residues 171–323); His tag (pHis-TEV vector) (N); made in house; host or cells: E. coli Rosetta2 DE3
Description: Mcl-1 and mutant Mcl-1 R263A proteins were biotinylated using the Thermo EZ-link Sulpho-NHS-LC-biotin biotinylation kit (cat. 21435). Protein and biotin were mixed in a 1:1 molar ratio in PBS on ice for 2 hours. The reaction mixture was dialyzed in PBS buffer to remove excess biotin. BLI experiments were performed using an OctetRED96 instrument from PALL/ForteBio. All experiments were performed at 30 °C using PBS (Gibco, #10010-23), and 0.005% Tween 20 as the assay buffer. Assays were conducted in 96-well, black, microplates (Greiner bio-one, #655209) containing the protein solutions for immobilization, pure assay buffer for dissociation, and serial dilutions of compounds in the presence of 5% DMSO to be tested. During the experiment, sample plates were continuously shaken at 1000 rpm. Biotinylated proteins were immobilized on Super Streptavidin (SSA) biosensors by dipping sensors into plate wells containing protein solutions. Biotinylated blocked Streptavidin sensors were used as control sensors prepared by the protocol provided from the manufacturer. Association (3 Minutes) and dissociation (3 Minutes) cycles of compounds were started by dipping sensors to compound wells with different tested concentrations as well as in pure buffer wells. Buffer-only reference was included in all assays. […]

[6] = target: T2, 15N-labeled Mcl-1 (Homo sapiens, UniProt Q07820); assay: 1H,15N HSQC NMR chemical shift perturbation; settings: direct binding to Mcl-1
T2 construct: human Mcl-1 (residues 171–323); made in house; host or cells: E. coli (bacteria grown on M9 minimal medium with 15N ammonium sulphate)
Description: NMR studies were performed as previously described. In brief, the ^15N-labeled Mcl-1 protein was prepared and purified using the same protocol as for unlabelled protein with the exception that the bacteria were grown on M9 minimal media supported with 1 g/L of (^15NH4)2SO4. Protein samples were prepared in a 20 mM sodium phosphate, 150 mM NaCl and 1 mM DTT solution at pH 7 in 7% D2O. The binding mode of compounds has been characterized with a solution of uniformly ^15N-labeled Mcl-1 (75 μM) in the absence and presence of added compounds (in 1 or 6% final DMSO) with the indicated molar ratio concentrations. The total volume of each sample was 150 μL and samples were prepared in Bruker tubes (Bruker, # Z117724). All Spectra were acquired at 30 °C on a Bruker 600 MHz NMR spectrometer equipped with a cryogenic probe, processed using Bruker TopSpin and rNMR, and were analysed with Sparky. Plots of chemical shift changes were calculated as ((Δ^1H ppm)2 + (0.2(Δ^15N ppm))2)0.5 of Mcl-1 amide upon addition of compound. The absence of a bar in a chemical shift plot indicates no chemical shift difference or the presence of a proline or residue that is overlapped or not assigned. The cutoff threshold for determining the significance of the chemical shift was based on one standard deviation above the average of all chemical shifts.

[7] = tested on: Mcl-1/Noxa interaction; design: method as in PubChem BioAssay AID 1417; settings: Dose Response Confirmation for Mcl-1/Noxa Interaction Inhibitors; ref PubChem BioAssay AID 1417; cited from earlier work

T1 sequence (Q07820 171-323 R263A): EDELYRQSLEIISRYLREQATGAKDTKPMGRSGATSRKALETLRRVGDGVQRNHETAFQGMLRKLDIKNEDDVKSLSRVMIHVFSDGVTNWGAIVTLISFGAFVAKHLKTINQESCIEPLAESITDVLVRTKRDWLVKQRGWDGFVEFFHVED
T2 sequence (Q07820 171-323): as the sequence (Q07820 171-323 R263A) above, with A93R counted along it

| SMILES | cell death in Bak−/− MEFs [1] | cell death in Bax−/− MEFs [2] | effect on Eµ-myc cells overexpressing Bcl-2 [3] | killing of Eµ-myc cells overexpressing Mcl-1 [4] | binding to mutant R263A Mcl-1 (BLI) [5] | chemical shift perturbations of Mcl-1 amides (HSQC NMR) [6] | IC50 [7] |
| --- | --- | --- | --- | --- | --- | --- | --- |
| O=C(CSc1nnc(-c2ccco2)c(-c2ccco2)n1)Nc1cccc(C(F)(F)F)c1 [Compound 39] | rescued the cells | rescued the cells | selectivity; also recorded: minimal effect | selective killing; also recorded: selectively kills Mcl-1 dependent cell lines |  |  |  |
| c1ccc(CCCCSc2nnc(-c3ccco3)c(-c3ccco3)n2)cc1 [Compound 44] |  |  | selectivity | killing |  |  |  |
| O=C(CSc1nnc(-c2ccco2)c(-c2ccco2)n1)Nc1ccccc1 [Compound 19] |  |  |  |  | no appreciable binding | concentration-dependent perturbations | 3.1 µM |
